pIC50: −log10 of the molar value.
What was measured:
Assay in all cases: purified recombinant isozyme activity assay, NADH formation at […] nm with acetaldehyde and NAD+
Format in all cases: biochemical
ALDH3A1 = target: T1, ALDH3A1 (Homo sapiens, UniProt P30838)
T1 sequence (P30838 2-453): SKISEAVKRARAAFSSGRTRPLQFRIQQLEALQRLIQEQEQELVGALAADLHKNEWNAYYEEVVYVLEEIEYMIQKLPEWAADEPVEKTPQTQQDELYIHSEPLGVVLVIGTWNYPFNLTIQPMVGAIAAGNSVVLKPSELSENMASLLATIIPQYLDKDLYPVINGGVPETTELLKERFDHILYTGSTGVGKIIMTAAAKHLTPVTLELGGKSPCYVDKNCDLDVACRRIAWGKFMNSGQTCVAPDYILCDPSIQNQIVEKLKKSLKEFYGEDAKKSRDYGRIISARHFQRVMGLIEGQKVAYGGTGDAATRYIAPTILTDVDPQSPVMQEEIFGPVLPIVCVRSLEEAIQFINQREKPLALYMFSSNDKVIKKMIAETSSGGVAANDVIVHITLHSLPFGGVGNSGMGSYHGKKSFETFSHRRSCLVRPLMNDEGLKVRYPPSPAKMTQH

ALDH2 = target: T2, ALDH2 (Homo sapiens, UniProt P05091)
T2 sequence (P05091 18-517): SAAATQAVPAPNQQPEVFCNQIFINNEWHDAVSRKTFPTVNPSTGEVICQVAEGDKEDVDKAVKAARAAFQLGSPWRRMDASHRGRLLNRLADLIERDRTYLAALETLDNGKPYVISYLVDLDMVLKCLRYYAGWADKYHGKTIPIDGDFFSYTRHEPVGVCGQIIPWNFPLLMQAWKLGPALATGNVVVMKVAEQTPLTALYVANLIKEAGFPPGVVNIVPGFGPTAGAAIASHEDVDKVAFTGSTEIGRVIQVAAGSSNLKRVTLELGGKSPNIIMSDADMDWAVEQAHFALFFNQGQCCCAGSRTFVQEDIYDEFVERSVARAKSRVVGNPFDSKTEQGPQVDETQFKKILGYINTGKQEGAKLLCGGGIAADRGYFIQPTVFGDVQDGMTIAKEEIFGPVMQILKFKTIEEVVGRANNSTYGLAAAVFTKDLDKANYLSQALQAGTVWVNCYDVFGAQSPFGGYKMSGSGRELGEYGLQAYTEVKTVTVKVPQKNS

ALDH1A1 = target: T3, ALDH1A1 (Homo sapiens, UniProt P00352)
T3 sequence (P00352 2-501): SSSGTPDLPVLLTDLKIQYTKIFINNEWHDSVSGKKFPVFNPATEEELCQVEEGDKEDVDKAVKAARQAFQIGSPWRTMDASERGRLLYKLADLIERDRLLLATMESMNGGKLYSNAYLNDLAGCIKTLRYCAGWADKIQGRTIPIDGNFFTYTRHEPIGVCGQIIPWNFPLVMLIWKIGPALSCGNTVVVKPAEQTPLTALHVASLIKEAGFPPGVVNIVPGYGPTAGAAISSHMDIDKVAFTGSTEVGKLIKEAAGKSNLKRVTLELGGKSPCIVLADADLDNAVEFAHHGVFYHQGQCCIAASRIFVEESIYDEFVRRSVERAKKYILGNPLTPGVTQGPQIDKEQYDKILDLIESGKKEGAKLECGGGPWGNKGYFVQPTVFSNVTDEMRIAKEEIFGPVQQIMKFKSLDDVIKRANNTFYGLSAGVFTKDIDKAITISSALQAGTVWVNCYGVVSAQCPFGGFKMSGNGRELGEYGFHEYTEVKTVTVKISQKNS

CN(C)CCC(=O)c1ccc(Br)cc1 [Aldi-6, 3-(Dimethylamino)-4′-bromopropiophenone]
pIC50 (ALDH3A1): 6.00 | pIC50 (ALDH2): 6.10 | pIC50 (ALDH1A1): 6.22
